# Laboratory results published in patent US20230348426A1, “OXOPYRROLIDINE FPR2 AGONISTS” (Bristol-Myers Squibb Company, priority 2020, published 2023).
# Assays:
# human FPR2 = human FPR2 (Homo sapiens (Human), UniProt P25090); assay: FPR2 cyclic adenosine monophosphate (cAMP) assay; format: cell-based; conditions: CHO cells overexpressing human FPR2; forskolin 5 µM; inhibition of cAMP production; read-out: hFPR2 cAMP2 EC50
# Summary of the method: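 Inhibition of forskolin-driven (5 µM) cAMP, with 200 µM IBMX, measured in human FPR2-expressing CHO cells, 2,000 per well, 30 min at room temperature; compounds tested 0.020 nM to 100 µM in 1% DMSO. HTRF 665/590 ratio converted to cAMP via calibration curve, then 4-parameter fit.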
# human FPR1 = human FPR1 (Homo sapiens (Human), UniProt P21462); assay: FPR1 cyclic adenosine monophosphate (cAMP) assay; format: cell-based; conditions: CHO cells overexpressing human FPR1; forskolin 10 µM; inhibition of cAMP production; read-out: hFPR1 cAMP EC50
# Summary of the method: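 Human FPR1-expressing CHO cells were used at 4,000 per well, with compound at 0.020 nM–100 µM in 1% DMSO. Potency came from a 4-parameter logistic fit.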
# Chain of human FPR1 (P21462 whole entry): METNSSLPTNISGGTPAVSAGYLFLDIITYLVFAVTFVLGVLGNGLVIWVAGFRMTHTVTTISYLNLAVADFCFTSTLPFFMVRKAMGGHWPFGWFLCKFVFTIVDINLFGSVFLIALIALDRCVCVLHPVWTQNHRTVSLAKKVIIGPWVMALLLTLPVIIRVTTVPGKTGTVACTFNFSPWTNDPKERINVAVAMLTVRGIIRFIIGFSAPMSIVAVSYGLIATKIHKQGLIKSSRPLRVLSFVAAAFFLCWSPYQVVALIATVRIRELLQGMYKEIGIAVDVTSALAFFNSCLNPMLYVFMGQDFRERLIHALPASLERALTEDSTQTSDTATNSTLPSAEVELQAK
# Chain of human FPR2 (P25090 whole entry): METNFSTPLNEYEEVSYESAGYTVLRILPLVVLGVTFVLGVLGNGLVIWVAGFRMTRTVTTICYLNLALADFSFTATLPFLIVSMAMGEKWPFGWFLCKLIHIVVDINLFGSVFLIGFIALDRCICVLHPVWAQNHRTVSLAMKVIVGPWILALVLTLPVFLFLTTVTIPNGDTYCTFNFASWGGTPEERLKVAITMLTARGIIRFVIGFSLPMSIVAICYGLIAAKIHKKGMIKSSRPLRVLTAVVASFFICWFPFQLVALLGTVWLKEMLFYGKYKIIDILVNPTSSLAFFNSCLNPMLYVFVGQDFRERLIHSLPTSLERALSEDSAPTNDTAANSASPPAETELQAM
Compound,EC50 (human FPR2) [nM],EC50 (human FPR1) [nM]
COc1cc(F)c([C@@H]2CN(c3nc(N4C[C@@H](C)N(C)[C@@H](C)C4)ccc3C3CC3)C(=O)[C@H]2NC(=O)c2ccc(OC(F)F)cc2)c(F)c1 [Example 348],111,1400
COc1cc(NCCO)nc(N2C[C@@H](c3c(F)cc(OC)cc3F)[C@H](NC(=O)c3ccc(Cl)cc3)C2=O)c1 [Example 106],2.9,870
COc1cc(F)c([C@H]2[C@H](NC(=O)c3ccc(OC(F)F)cc3)C(=O)N(c3cccc(C4CCN(CC(F)F)CC4)n3)[C@H]2C)c(F)c1 [Example 537],9.9,35
COc1cc(F)c([C@@H]2CN(Cc3ccccc3P(C)(C)=O)C(=O)[C@H]2NC(=O)c2ccc(OC(F)(F)F)cc2)c(F)c1 [Example 17],36,69
COc1cc(C2CCN(CCF)CC2)nc(N2C[C@@H](c3c(F)cc(OC)cc3F)[C@H](NC(=O)c3ccc(OC(F)F)cc3)C2=O)c1 [Example 492],8.7,> 5000
COCCn1ccc(C)c(N2C[C@@H](c3c(F)cc(OC)cc3F)[C@H](NC(=O)c3ccc(OC(F)F)cc3)C2=O)c1=O [Example 232],6.3,3.2
COc1cc(F)c([C@H]2[C@H](NC(=O)c3ccc(OC(F)F)cc3)C(=O)N(c3ncccc3OC)[C@H]2C)c(F)c1 [Example 77],2,170
COc1cc(F)c([C@@H]2CN(c3nc(N4C[C@@H]5C[C@H]4CN5C)ccc3OC)C(=O)[C@H]2NC(=O)c2ccc(OC(F)F)cc2)c(F)c1 [Example 328],12,610
COc1cc(F)c([C@@H]2CN(c3nccc(NCCS(C)(=O)=O)c3C(F)(F)F)C(=O)[C@H]2NC(=O)c2ccc(Cl)cc2)c(F)c1 [Example 451],2,1900
COc1cc(F)c([C@@H]2CN(c3cccnn3)C(=O)[C@H]2NC(=O)c2ccc(OC(F)F)cc2)c(F)c1 [Example 300],9.3,360
COc1cc(F)c([C@@H]2CN(c3cc(C)cn(C)c3=O)C(=O)[C@H]2NC(=O)c2ccc(OC(F)F)cc2)c(F)c1 [Example 244],6.8,950
COc1cc(F)c([C@@H]2CN(c3cncn(C(CO)C(F)(F)F)c3=O)C(=O)[C@H]2NC(=O)c2ccc(Cl)cc2)c(F)c1 (stereo partly drawn) [Example 517],2.8,1800
COc1cc(F)c([C@@H]2CN(c3cccn(CC(C)OC)c3=O)C(=O)[C@H]2NC(=O)c2ccc(OC(F)(F)F)cc2)c(F)c1 (stereo partly drawn) [Example 103],2.8,1.9
COc1cc(F)c([C@@H]2CN(c3c(C)ccn(CCO)c3=O)C(=O)[C@H]2NC(=O)c2ccc(OC(F)(F)F)cc2)c(F)c1 [Example 115],3.1,2.4
COCCn1cccc(N2C[C@@H](c3ccc(OC)cc3F)[C@H](NC(=O)c3ccc(OC(F)(F)F)cc3)C2=O)c1=O [Example 56],1.4,4
COc1ccc([C@@H]2CN(c3c(C)ccn(C4CCC4)c3=O)C(=O)[C@H]2NC(=O)c2ccc(OC(F)(F)F)cc2)cc1 [Example 687],1.8,0.28
COCC(CO)n1cccc(N2C[C@@H](c3c(F)cc(OC)cc3F)[C@H](NC(=O)c3ccc(OC(F)(F)F)cc3)C2=O)c1=O (stereo partly drawn) [Example 144],3.6,23.1
COCC(CO)n1cccc(N2C[C@@H](c3ccc(Cl)cc3)[C@H](NC(=O)c3ccc(Cl)cc3)C2=O)c1=O (stereo partly drawn) [Example 406],2.9,9
COc1cc(F)c([C@@H]2CN(c3c(C(F)(F)F)ccn(C)c3=O)C(=O)[C@H]2NC(=O)c2ccc(Cl)cc2)c(F)c1 [Example 337],17,4300
COc1cc(F)c([C@@H]2CN(c3c(C)ccn([C@H]4COC[C@@H]4O)c3=O)C(=O)[C@H]2NC(=O)c2ccc(OC(F)F)cc2)c(F)c1 [Example 624],1.5,9.3
COc1cc(F)c([C@@H]2CN(c3nn(C4COC4)c(=O)cc3C)C(=O)[C@H]2NC(=O)c2ccc(OC(F)F)cc2)c(F)c1 [Example 628],4.7,59
COc1cc(F)c([C@@H]2CN(c3c(C)c4c(n(CCO)c3=O)CCC4)C(=O)[C@H]2NC(=O)c2ccc(OC(F)F)cc2)c(F)c1 [Example 591],10.5,8.5
COc1cc(F)c([C@@H]2CN(c3cccn(CC(O)C(F)(F)F)c3=O)C(=O)[C@H]2NC(=O)c2ccc(OC(F)(F)F)cc2)c(F)c1 (stereo partly drawn) [Example 47],1.1,150
COc1cc(F)c([C@@H]2CN(c3cccn(CC(F)(F)F)c3=O)C(=O)[C@H]2NC(=O)c2ccc(OC(F)(F)F)cc2)c(F)c1 [Example 191],5,90

Compound,EC50 (human FPR2) [nM],EC50 (human FPR1) [nM]
COc1cc(F)c([C@@H]2CN(c3cccn(CC(O)C(F)(F)F)c3=O)C(=O)[C@H]2NC(=O)c2ccc(OC(F)(F)F)cc2)c(F)c1 (stereo partly drawn) [Example 155],4,9.3
"COc1cc(F)c([C@@H]2CN(c3cccn(CC(O)C(F)(F)F)c3=O)C(=O)[C@H]2NC(=O)c2ccc(OC(F)F)cc2)c(F)c1 (single isomer, unassigned) [Example 4]",1.7,290
COc1cc(F)c([C@@H]2CN(c3nc(N4CCC(O)C4=O)ccc3F)C(=O)[C@H]2NC(=O)c2ccc(OC(F)F)cc2)c(F)c1 (stereo partly drawn) [Example 135],3.5,58
COc1cc(F)c([C@H]2[C@H](NC(=O)c3ccc(OC(F)F)cc3)C(=O)N(c3cccn(CCO)c3=O)[C@H]2C)c(F)c1 [Example 445],4.2,620
COc1cc(F)c([C@@H]2CN(c3cccn(CCN4CCS(=O)(=O)CC4)c3=O)C(=O)[C@H]2NC(=O)c2ccc(OC(F)F)cc2)c(F)c1 [Example 306],9.8,250
CCn1cc2c(c(N3C[C@@H](c4c(F)cc(OC)cc4F)[C@@H](NC(=O)c4ccc(OC(F)F)cc4)C3=O)c1=O)CCCC2 [Example 664],8.7,190
COc1cc(C2CCN(CCO)CC2)nc(N2C(=O)[C@@H](NC(=O)c3ccc(OC(F)F)cc3)[C@H](c3c(F)cc(OC)cc3F)[C@@H]2C)c1 [Example 504],2.2,3300
CCn1ccc(C)c(N2C[C@@H](c3c(F)cc(OC)cc3F)[C@H](NC(=O)c3ccc(OC(F)F)cc3)C2=O)c1=O [Example 197],5.2,1.7
CC(O)Cn1cccc(N2C[C@@H](c3ccc(Cl)cc3)[C@H](NC(=O)c3ccc(Cl)cc3)C2=O)c1=O (stereo partly drawn) [Example 424],2.2,11
COCCn1ccc(C)c(N2C[C@@H](c3c(F)cc(OC)cc3F)[C@H](NC(=O)c3ccc(Cl)cc3)C2=O)c1=O [Example 422],1.1,3
COc1cc(F)c([C@@H]2CN(c3cccc(C4CCN(C)CC4)n3)C(=O)[C@H]2NC(=O)c2ccc(OC(F)F)cc2)c(F)c1 [Example 525],1.4,420
COc1cc(F)c([C@@H]2CN(c3c(C)ccn(CC(F)F)c3=O)C(=O)[C@H]2NC(=O)c2ccc(OC(F)(F)F)cc2)c(F)c1 [Example 86],2.3,4.1
COc1ccc([C@@H]2CN(c3c(C)ccn(CCO)c3=O)C(=O)[C@H]2NC(=O)c2ccc(OC(F)(F)F)cc2)c(F)c1 [Example 636],1.6,3.2
COc1cc(N2C[C@@H](c3c(F)cc(OC)cc3F)[C@H](NC(=O)c3ccc(OC(F)(F)F)cc3)C2=O)nc(C(C)(C)O)c1 [Example 584],21.8,660
COc1cc(F)c([C@@H]2CN(c3c(C)ccn(C(F)(F)C(=O)N4CCOCC4)c3=O)C(=O)[C@H]2NC(=O)c2ccc(OC(F)F)cc2)c(F)c1 [Example 600],7.8,170
COc1cc(F)c([C@@H]2CN(c3cccn(CCO)c3=O)C(=O)[C@H]2NC(=O)c2ccc(Cl)cc2)c(F)c1 [Example 130],3.4,340
COCCn1c(C)ccc(N2C[C@@H](c3c(F)cc(OC)cc3F)[C@H](NC(=O)c3ccc(OC(F)F)cc3)C2=O)c1=O [Example 336],17,60
COc1cc(F)c([C@@H]2CN(c3cccc(N4CCN(C)CC4)n3)C(=O)[C@H]2NC(=O)c2ccc(OC(F)F)cc2)c(F)c1 [Example 566],1.1,990
COc1ccc([C@@H]2CN(c3c(C)ccn(CC(F)F)c3=O)C(=O)[C@H]2NC(=O)c2ccc(OC(F)F)cc2)cc1 [Example 632],0.9,3.7
COc1ccc([C@@H]2CN(c3c(C)ccn(CC4CC4)c3=O)C(=O)[C@H]2NC(=O)c2ccc(OC(F)(F)F)cc2)c(F)c1 [Example 312],10,0.5
COc1cc(F)c([C@@H]2CN(c3nc(N4CCN(C)CC4)ccc3F)C(=O)[C@H]2NC(=O)c2ccc(OC(F)F)cc2)c(F)c1 [Example 54],1.4,820
CCn1cccc(N2C(=O)[C@@H](NC(=O)c3ccc(OC(F)F)cc3)[C@H](c3c(F)cc(OC)cc3F)[C@@H]2C)c1=O [Example 80],2.1,130
COc1cc(F)c([C@H]2[C@H](NC(=O)c3ccc(OC(F)F)cc3)C(=O)N(c3cccc(N4CC[C@H](O)C4)n3)[C@H]2C)c(F)c1 [Example 568],2.8,440
COc1cc(F)c([C@@H]2CN(c3cccn(CCN4CC5(COC5)C4)c3=O)C(=O)[C@H]2NC(=O)c2ccc(OC(F)F)cc2)c(F)c1 [Example 164],4.2,290
